The supplement of paper PMC6045584
± gives the standard deviation of the averaged measurements.

compound: CN1CC[C@H](c2c(O)cc(O)c3c(=O)cc(-c4ccccc4Cl)oc23)[C@H](O)C1 [FLAVOPIRIDOL]; test: surviving fraction relative to DMSO-only wells; higher = less growth inhibition; settings: 50 nM; exposure time: 5 days
How it was run: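 Tumour cell lines were grown to log phase and seeded at 250–500 cells per well in 384-well plates. They were exposed continuously to inhibitors at 0.5, 1, 5, 10, 50, 100, 500 and 1000 nM for five days, beginning 24 hours after seeding. Surviving fraction is CellTiter-Glo luminescence normalised to the median of DMSO-only wells.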

| Test System | surviving fraction |
| --- | --- |
| SUM149.B1*.S BREAST | 1 ± 0.037 |
| 93VU HEADNECK | 0.82 ± 0.011 |
| LM7 BONE | 0.824 ± 0.031 |
| 143B BONE | 0.824 ± 0.024 |
| SUM159 BREAST | 1.08 ± 0.026 |
| SUM149 BREAST | 0.681 ± 0.027 |
| MDAMB361 BREAST | 0.937 ± 0.13 |
| SAOS2 BONE | 0.889 ± 0.048 |
| ASKA SYNOVIAL | 0.507 ± 0.065 |
| HCC1395 BREAST | 1.3 ± 0.16 |
| HCC1954 BREAST | 0.361 ± 0.1 |
| CME SYNOVIAL | 0.864 ± 0.053 |
| VCAP PROSTATE | 0.87 ± 0.058 |
| YAMATO SYNOVIAL | 0.682 ± 0.082 |
| HCC202 BREAST | 0.847 ± 0.13 |
| HELA CERVIX | 1.16 ± 0.053 |
| SG27 HEADNECK | 0.844 ± 0.087 |
| CAL72 BONE | 0.649 ± 0.053 |
| MDAMB134 BREAST | 1.52 ± 0.23 |
| C33A CERVIX | 0.923 ± 0.13 |

| Test System | surviving fraction |
| --- | --- |
| SKBR3 BREAST | 0.541 ± 0.051 |
| MHM BONE | 1.227 ± 0.0078 |
| VP229 BREAST | 0.564 ± 0.095 |
| SYO1 SYNOVIAL | 0.515 ± 0.0082 |
| ZR751 BREAST | 1.108 ± 0.0081 |
| KPD BONE | 0.525 ± 0.035 |
| SIHA CERVIX | 0.714 ± 0.045 |
| DU4475 BREAST | 0.162 ± 0.021 |
| BT549 BREAST | 0.454 ± 0.035 |
| COLO320DM LARGE INTESTINE | 0.503 ± 0.0073 |
| T47D BREAST | 1.15 ± 0.051 |
| H23 LUNG | 1.54 ± 0.11 |
| NCIH441 LUNG | 0.953 ± 0.081 |
| HCT15 LARGE INTESTINE | 0.45 ± 0.035 |
| SCC90 HEADNECK | 0.834 ± 0.079 |
| MDAMB453 BREAST | 0.586 ± 0.056 |
| MG63 BONE | 1.35 ± 0.045 |
| A549 LUNG | 1.18 ± 0.028 |
| MDAMB468 BREAST | 0.734 ± 0.061 |

same assay, conditions: 100 nM; exposure time: 5 days

| Test System | surviving fraction |
| --- | --- |
| SUM149.B1*.S BREAST | 0.459 ± 0.06 |
| 93VU HEADNECK | 0.0713 ± 0.0035 |
| LM7 BONE | 0.446 ± 0.016 |
| 143B BONE | 0.279 ± 0.0035 |
| SUM159 BREAST | 0.44 ± 0.082 |
| SUM149 BREAST | 0.0783 ± 0.029 |
| MDAMB361 BREAST | 0.719 ± 0.039 |
| SAOS2 BONE | 0.159 ± 0.022 |
| ASKA SYNOVIAL | 0.202 ± 0.01 |
| HCC1395 BREAST | 0.992 ± 0.14 |
| HCC1954 BREAST | 0.0465 ± 0.0057 |
| CME SYNOVIAL | 0.25 ± 0.0067 |
| VCAP PROSTATE | 0.324 ± 0.031 |
| YAMATO SYNOVIAL | 0.306 ± 0.023 |
| HCC202 BREAST | 0.304 ± 0.012 |
| HELA CERVIX | 0.691 ± 0.027 |
| SG27 HEADNECK | 0.368 ± 0.063 |
| CAL72 BONE | 0.142 ± 0.053 |
| MDAMB134 BREAST | 0.977 ± 0.15 |
| C33A CERVIX | 0.366 ± 0.011 |

| Test System | surviving fraction |
| --- | --- |
| SKBR3 BREAST | 0.207 ± 0.035 |
| MHM BONE | 1.16 ± 0.048 |
| VP229 BREAST | 0.211 ± 0.13 |
| SYO1 SYNOVIAL | 0.144 ± 0.0063 |
| ZR751 BREAST | 0.453 ± 0.057 |
| KPD BONE | 0.101 ± 0.015 |
| SIHA CERVIX | 0.336 ± 0.056 |
| DU4475 BREAST | 0.0273 ± 0.0021 |
| BT549 BREAST | 0.074 ± 0.012 |
| COLO320DM LARGE INTESTINE | 0.0807 ± 0.0055 |
| T47D BREAST | 0.67 ± 0.073 |
| H23 LUNG | 0.5197 ± 0.005 |
| NCIH441 LUNG | 0.698 ± 0.17 |
| HCT15 LARGE INTESTINE | 0.103 ± 0.013 |
| SCC90 HEADNECK | 0.378 ± 0.086 |
| MDAMB453 BREAST | 0.134 ± 0.022 |
| MG63 BONE | 0.782 ± 0.049 |
| A549 LUNG | 0.379 ± 0.11 |
| MDAMB468 BREAST | 0.15 ± 0.016 |

same assay, conditions: 500 nM; exposure time: 5 days

| Test System | surviving fraction |
| --- | --- |
| SUM149.B1*.S BREAST | 0.0462 ± 0.0049 |
| 93VU HEADNECK | 0.0237 ± 0.0015 |
| LM7 BONE | 0.0593 ± 0.0038 |
| 143B BONE | 0.045 ± 0.0028 |
| SUM159 BREAST | 0.0913 ± 0.0097 |
| SUM149 BREAST | 0.018 ± 0.0027 |
| MDAMB361 BREAST | 0.223 ± 0.021 |
| SAOS2 BONE | 0.0307 ± 0.0015 |
| ASKA SYNOVIAL | 0.186 ± 0.012 |
| HCC1395 BREAST | 0.51 ± 0.36 |
| HCC1954 BREAST | 0.0345 ± 0.0014 |
| CME SYNOVIAL | 0.168 ± 0.004 |
| VCAP PROSTATE | 0.042 ± 0.01 |
| YAMATO SYNOVIAL | 0.26 ± 0.0092 |
| HCC202 BREAST | 0.0405 ± 0.00071 |
| HELA CERVIX | 0.0347 ± 0.001 |
| SG27 HEADNECK | 0.0753 ± 0.047 |
| CAL72 BONE | 0.0577 ± 0.0032 |
| MDAMB134 BREAST | 0.303 ± 0.016 |
| C33A CERVIX | 0.028 ± 0.0027 |

| Test System | surviving fraction |
| --- | --- |
| SKBR3 BREAST | 0.032 ± 0.015 |
| MHM BONE | 0.0433 ± 0.0021 |
| VP229 BREAST | 0.0273 ± 0.0031 |
| SYO1 SYNOVIAL | 0.0511 ± 0.0021 |
| ZR751 BREAST | 0.089 ± 0.0095 |
| KPD BONE | 0.031 ± 0.0017 |
| SIHA CERVIX | 0.0243 ± 0.0015 |
| DU4475 BREAST | 0.025 ± 0.0027 |
| BT549 BREAST | 0.0343 ± 0.005 |
| COLO320DM LARGE INTESTINE | 0.0493 ± 0.00076 |
| T47D BREAST | 0.195 ± 0.0027 |
| H23 LUNG | 0.0303 ± 0.0015 |
| NCIH441 LUNG | 0.103 ± 0.024 |
| HCT15 LARGE INTESTINE | 0.0417 ± 0.0025 |
| SCC90 HEADNECK | 0.0317 ± 0.0057 |
| MDAMB453 BREAST | 0.085 ± 0.017 |
| MG63 BONE | 0.0347 ± 0.0023 |
| A549 LUNG | 0.0697 ± 0.0058 |
| MDAMB468 BREAST | 0.0447 ± 0.005 |

same assay, conditions: 1000 nM; exposure time: 5 days

| Test System | surviving fraction |
| --- | --- |
| SUM149.B1*.S BREAST | 0.0412 ± 0.0016 |
| 93VU HEADNECK | 0.0217 ± 0.0015 |
| LM7 BONE | 0.0543 ± 0.0029 |
| 143B BONE | 0.042 ± 0.0028 |
| SUM159 BREAST | 0.0957 ± 0.0072 |
| SUM149 BREAST | 0.0183 ± 0.0032 |
| MDAMB361 BREAST | 0.229 ± 0.022 |
| SAOS2 BONE | 0.0247 ± 0.0025 |
| ASKA SYNOVIAL | 0.261 ± 0.0078 |
| HCC1395 BREAST | 0.419 ± 0.19 |
| HCC1954 BREAST | 0.0318 ± 0.0039 |
| CME SYNOVIAL | 0.228 ± 0.012 |
| VCAP PROSTATE | 0.051 ± 0.031 |
| YAMATO SYNOVIAL | 0.29 ± 0.013 |
| HCC202 BREAST | 0.0405 ± 0.00071 |
| HELA CERVIX | 0.0268 ± 0.00029 |
| SG27 HEADNECK | 0.071 ± 0.032 |
| CAL72 BONE | 0.0577 ± 0.0076 |
| MDAMB134 BREAST | 0.2765 ± 0.0021 |
| C33A CERVIX | 0.0277 ± 0.0072 |

| Test System | surviving fraction |
| --- | --- |
| SKBR3 BREAST | 0.0233 ± 0.0031 |
| MHM BONE | 0.0397 ± 0.0021 |
| VP229 BREAST | 0.0273 ± 0.004 |
| SYO1 SYNOVIAL | 0.0522 ± 0.004 |
| ZR751 BREAST | 0.0853 ± 0.0065 |
| KPD BONE | 0.0277 ± 0.006 |
| SIHA CERVIX | 0.023 ± 0.001 |
| DU4475 BREAST | 0.0267 ± 0.0021 |
| BT549 BREAST | 0.035 ± 0.007 |
| COLO320DM LARGE INTESTINE | 0.0478 ± 0.0036 |
| T47D BREAST | 0.148 ± 0.0041 |
| H23 LUNG | 0.026 ± 0.001 |
| NCIH441 LUNG | 0.0917 ± 0.024 |
| HCT15 LARGE INTESTINE | 0.0417 ± 0.0015 |
| SCC90 HEADNECK | 0.027 ± 0.002 |
| MDAMB453 BREAST | 0.074 ± 0.025 |
| MG63 BONE | 0.0313 ± 0.0015 |
| A549 LUNG | 0.0687 ± 0.0038 |
| MDAMB468 BREAST | 0.04 ± 0.0061 |
